# Where “and” joins values, the source holds several entries; their conditions need not be identical. Identical values can stand only once. Inconclusive results and toxic doses are left out.
# Test system: BDF1 mice, P388 leukemia ip, median survival T/C
# Test: NCI In Vivo Anticancer Drug Screen. Data for tumor model P388 Leukemia (intraperitoneal) in B6D2F1 (BDF1) mice
# Settings: endpoint: median survival time, higher = longer survival
# Procedure, shortened: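 Steps: implant the tumour, treat one group with compound and another with vehicle, record survival, then divide treated by control.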
# [1] = dose: 50.0 mg/kg/injection, schedule: Q01DX009 (ip), vehicle: saline with Tween-80
# [2] = dose: 100.0 mg/kg/injection, schedule: Q01DX009 (ip), vehicle: saline with Tween-80
# [3] = dose: 200.0 mg/kg/injection, schedule: Q01DX009 (ip), vehicle: saline with Tween-80
# [4] = dose: 100.0 mg/kg/injection, schedule: Q01DX001 (ip), vehicle: saline with Tween-80
# [5] = dose: 200.0 mg/kg/injection, schedule: Q01DX001 (ip), vehicle: saline with Tween-80
# [6] = dose: 200.0 mg/kg/injection, schedule: Q01DX009 (ip), vehicle: Klucel (hydroxypropylcellulose) (HPC)
# [7] = dose: 400.0 mg/kg/injection, schedule: Q01DX009 (ip), vehicle: Klucel (hydroxypropylcellulose) (HPC)
# [8] = dose: 12.5 mg/kg/injection, schedule: Q01DX009 (ip), vehicle: saline
# [9] = dose: 25.0 mg/kg/injection, schedule: Q01DX009 (ip), vehicle: saline
# [10] = dose: 6.25 mg/kg/injection, schedule: Q01DX009 (ip), vehicle: saline with Tween-80
# [11] = dose: 12.5 mg/kg/injection, schedule: Q01DX009 (ip), vehicle: saline with Tween-80
# [12] = dose: 25.0 mg/kg/injection, schedule: Q01DX009 (ip), vehicle: saline with Tween-80
smiles,measurement,setting,value
O=[N+]([O-])c1ccc(S(=O)(=O)Nc2ccc(-c3ccccc3)cc2)cc1,T/C,"dose: 100.0 mg/kg/injection, schedule: Q04DX003 (ip), vehicle: other",96 % of control
same,T/C,"dose: 200.0 mg/kg/injection, schedule: Q04DX003 (ip), vehicle: other",104 % of control
same,T/C,"dose: 400.0 mg/kg/injection, schedule: Q04DX003 (ip), vehicle: other",100 % of control
C=CCn1nnc(-c2ccccc2)n1,T/C,[1],117 % of control
same,T/C,[2],117 % of control
same,T/C,[3],119 % of control
CN=C(N)Nc1ccc(C(=O)O)cc1,T/C,"dose: 50.0 mg/kg/injection, schedule: Q01DX009 (ip), vehicle: water",93 % of control
same,T/C,"dose: 100.0 mg/kg/injection, schedule: Q01DX009 (ip), vehicle: water",99 % of control
same,T/C,"dose: 100.0 mg/kg/injection, schedule: Q04DX003 (ip), vehicle: water",100 % of control
same,T/C,"dose: 200.0 mg/kg/injection, schedule: Q01DX009 (ip), vehicle: water",90 % of control
same,T/C,"dose: 200.0 mg/kg/injection, schedule: Q04DX003 (ip), vehicle: water",94 % of control
same,T/C,"dose: 400.0 mg/kg/injection, schedule: Q01DX009 (ip), vehicle: water",92 % of control
same,T/C,"dose: 400.0 mg/kg/injection, schedule: Q04DX003 (ip), vehicle: water",88 % of control
NNC(=O)c1ccc(Cl)cc1Nc1cccc(Cl)c1,T/C,"dose: 50.0 mg/kg/injection, schedule: Q01DX001 (ip), vehicle: saline with Tween-80",100 % of control
same,T/C,[4],100 % of control
same,T/C,[5],104 % of control
CCCCCCCCCCCCCCCC(=O)N1CCC(N2CCCCC2)CC1,T/C,"dose: 200.0 mg/kg/injection, schedule: Q01DX001 (ip), vehicle: Klucel (hydroxypropylcellulose) (HPC)",109 % of control
same,T/C,"dose: 400.0 mg/kg/injection, schedule: Q01DX001 (ip), vehicle: Klucel (hydroxypropylcellulose) (HPC)",90 % of control
CCOC(=O)/C=C\c1c(OC)nc2ccccn2c1=O (tested in a mixture with another compound),T/C,"dose: 100.0 mg/kg/injection, schedule: Q01DX009 (ip), vehicle: Klucel (hydroxypropylcellulose) (HPC)",116 % of control
same,T/C,"dose: 100.0 mg/kg/injection, schedule: Q04DX003 (ip), vehicle: Klucel (hydroxypropylcellulose) (HPC)",122 % of control
same,T/C,[6],121 % of control
same,T/C,"dose: 200.0 mg/kg/injection, schedule: Q04DX003 (ip), vehicle: Klucel (hydroxypropylcellulose) (HPC)",109 % of control
same,T/C,[7],111 % of control
same,T/C,"dose: 400.0 mg/kg/injection, schedule: Q04DX003 (ip), vehicle: Klucel (hydroxypropylcellulose) (HPC)",113 % of control
Cc1cccc(N)n1 (tested in a mixture with another compound),T/C,[8],105 % of control
same,T/C,[9],94 % of control
same,T/C,"dose: 50.0 mg/kg/injection, schedule: Q01DX009 (ip), vehicle: saline",89 % of control
CCCCCCCCC(=O)Nc1ncnc2n[nH]nc12,T/C,[10],87 % of control
same,T/C,[11],90 % of control
same,T/C,[12],102 % of control
same,T/C,[1],109 % of control
Cc1ccc(C[P+](c2ccccc2)(c2ccccc2)c2ccccc2)cc1,T/C,"dose: 2.5 mg/kg/injection, schedule: Q01DX010 (ip), vehicle: saline",114 % of control
same,T/C,"dose: 5.0 mg/kg/injection, schedule: Q01DX010 (ip), vehicle: saline",114 % of control
same,T/C,"dose: 10.0 mg/kg/injection, schedule: Q01DX010 (ip), vehicle: saline",104 % of control
Cc1ccc(Sc2cccc3c(C)c4cccc5c4c(c23)C[S+]5c2ccc(C)cc2)cc1 (centres undefined),T/C,"dose: 1.5 mg/kg/injection, schedule: Q04DX003 (ip), vehicle: saline with Tween-80",100 % of control
same,T/C,"dose: 3.0 mg/kg/injection, schedule: Q04DX003 (ip), vehicle: saline with Tween-80",104 % of control
same,T/C,"dose: 6.0 mg/kg/injection, schedule: Q04DX003 (ip), vehicle: saline with Tween-80",100 % of control
O=CC(NC(=O)N(CCCl)N=O)C(O)C(O)C(O)CO (centres undefined),T/C,"dose: 1.3 mg/kg/injection, schedule: Q01DX009 (ip), vehicle: saline",157 % of control
same,T/C,"dose: 2.0 mg/kg/injection, schedule: Q01DX009 (ip), vehicle: saline",198 % of control
same,T/C,"dose: 3.0 mg/kg/injection, schedule: Q01DX009 (ip), vehicle: saline",230 % of control
same,T/C,"dose: 4.5 mg/kg/injection, schedule: Q01DX009 (ip), vehicle: saline",238 % of control
same,T/C,"dose: 6.48 mg/kg/injection, schedule: Q04DX003 (ip), vehicle: saline",250 % of control
same,T/C,"dose: 6.7 mg/kg/injection, schedule: Q01DX009 (ip), vehicle: saline",238 % of control
same,T/C,"dose: 6.8 mg/kg/injection, schedule: Q01DX009 (ip), vehicle: saline",169 % of control
same,T/C,"dose: 10.0 mg/kg/injection, schedule: Q01DX009 (ip), vehicle: saline",203 % of control
same,T/C,"dose: 10.8 mg/kg/injection, schedule: Q04DX003 (ip), vehicle: saline",514 % of control
same,T/C,"dose: 13.0 mg/kg/injection, schedule: Q01DX001 (ip), vehicle: saline",238 % of control and 211 % of control
same,T/C,"dose: 18.0 mg/kg/injection, schedule: Q04DX003 (ip), vehicle: saline",262 % of control
same,T/C,"dose: 20.0 mg/kg/injection, schedule: Q01DX001 (ip), vehicle: saline",237 % of control and 203 % of control
same,T/C,"dose: 30.0 mg/kg/injection, schedule: Q01DX001 (ip), vehicle: saline",253 % of control and 95 % of control
same,T/C,"dose: 45.0 mg/kg/injection, schedule: Q01DX001 (ip), vehicle: saline",254 % of control
N#CCCN(C(=S)Nc1cccc(C(F)(F)F)c1)C1CCCCC1,T/C,[1],114 % of control and 123 % of control
same,T/C,[2],110 % of control and 111 % of control
same,T/C,[3],106 % of control
O=C(Nc1ccc(C2=NCCN2)cc1)Nc1cccc(NC(=O)Nc2ccc(C3=NCCN3)cc2)c1,T/C,"dose: 60.0 mg/kg/injection, schedule: Q01DX010 (ip), vehicle: saline",185 % of control and 190 % of control
same,T/C,"dose: 120.0 mg/kg/injection, schedule: Q01DX010 (ip), vehicle: saline",185 % of control
same,T/C,"dose: 240.0 mg/kg/injection, schedule: Q01DX010 (ip), vehicle: saline",245 % of control and 220 % of control
same,T/C,"dose: 480.0 mg/kg/injection, schedule: Q01DX010 (ip), vehicle: saline",120 % of control
CN1C(=O)CC2(CCN(CCCC(=O)c3ccc(F)cc3)CC2)C1=O,T/C,[10],116 % of control
same,T/C,[11],107 % of control
same,T/C,"dose: 25.0 mg/kg/injection, schedule: Q01DX009 (ip), vehicle: Klucel (hydroxypropylcellulose) (HPC)",118 % of control
same,T/C,[12],124 % of control
same,T/C,"dose: 50.0 mg/kg/injection, schedule: Q01DX009 (ip), vehicle: Klucel (hydroxypropylcellulose) (HPC)",120 % of control
same,T/C,[1],97 % of control
COc1ccc(C(=O)CC(=O)CC(=O)c2ccccc2)cc1,T/C,[6],86 % of control
same,T/C,[7],90 % of control
CCC(=O)Nc1cccc(Cl)c1,T/C,[4],109 % of control
same,T/C,[5],109 % of control
same,T/C,"dose: 400.0 mg/kg/injection, schedule: Q01DX001 (ip), vehicle: saline with Tween-80",90 % of control
CCC(CC)OC(=O)c1cccc(C)c1,T/C,"dose: 50.0 mg/kg/injection, schedule: Q04DX003 (ip), vehicle: saline with Tween-80",104 % of control
same,T/C,"dose: 100.0 mg/kg/injection, schedule: Q04DX003 (ip), vehicle: saline with Tween-80",108 % of control
same,T/C,"dose: 200.0 mg/kg/injection, schedule: Q04DX003 (ip), vehicle: saline with Tween-80",101 % of control
N=C(N)SCc1ccc(CSC(=N)N)s1,T/C,"dose: 6.25 mg/kg/injection, schedule: Q01DX009 (ip), vehicle: saline",97 % of control
same,T/C,[8],106 % of control
same,T/C,[9],106 % of control
C=C(C)c1ccc(C)c(C)c1,T/C,[2],106 % of control
same,T/C,"dose: 400.0 mg/kg/injection, schedule: Q01DX009 (ip), vehicle: saline with Tween-80",122 % of control
CCOC(=O)CCOCOCCC(=O)OCC,T/C,"dose: 100.0 mg/kg/injection, schedule: Q04DX003 (ip), vehicle: saline",100 % of control
same,T/C,"dose: 200.0 mg/kg/injection, schedule: Q04DX003 (ip), vehicle: saline",95 % of control
same,T/C,"dose: 400.0 mg/kg/injection, schedule: Q04DX003 (ip), vehicle: saline",95 % of control
NC(=O)C1(NC2CCCCC2)CCN(Cc2ccccc2)CC1,T/C,"dose: 50.0 mg/kg/injection, schedule: Q01DX009 (ip), vehicle: gum acacia",107 % of control
same,T/C,"dose: 50.0 mg/kg/injection, schedule: Q04DX003 (ip), vehicle: gum acacia",100 % of control
same,T/C,"dose: 100.0 mg/kg/injection, schedule: Q01DX009 (ip), vehicle: gum acacia",107 % of control
same,T/C,"dose: 100.0 mg/kg/injection, schedule: Q04DX003 (ip), vehicle: gum acacia",91 % of control

# — PubChem BioAssay AID328 (DTP/NCI, 2004)
